Data set [1] can be described thus: Drug uptake in C57BL/6J mouse skeletal muscle at 1 mg/kg, po by LC-MS/MS analysis. As to conditions: in vivo, read-out: Drug uptake. It is filed as ADME, organism-based, Skeletal muscle tissue.
Data set [2] is described as follows: Drug uptake in C57BL/6J mouse liver at 3 mg/kg, po by LC-MS/MS analysis. As to conditions: in vivo, read-out: Drug uptake. It is filed as ADME, organism-based.
Data set [3] is described as follows: Half life in C57BL/6J mouse serum at 10 mg/kg, po by LC-MS/MS analysis. It is filed as ADME, organism-based.
A short description of data set [4]: Half life in human. In kind it is ADME.
Data set [5] has as its system Mus musculus. The data set can be described thus: Modulation of metabolic parameters in diet-induced obesity C57BL/6J mouse model assessed as improvement in insulin sensitivity at 10 mg/kg, po for 1 week by insulin sensitivity test. In kind it is functional, organism-based. To be noted: time 1.0 weeks.
Data set [6] can be described thus: Bound fraction in human plasma.
Data set [7] is described as follows: Lipophilicity, logD of compound at pH 7.4. To be noted: buffer. It is filed as physicochemical.
Data set [8] in a line: Toxicity in C57BL/6J mouse assessed as induction of anxiety by measuring reduction in time spent in open arms at 10 mg/kg, po measured after 1 hr by elevated plus maze test. It is filed as organism-based. To be noted: in vivo.
The target of data set [9] is T1, Cannabinoid receptor 1 (Mus musculus, UniProt P47746). Briefly: Displacement of [3H][…] from CB1 receptor in mouse brain plasma membrane by radioligand displacement analysis. In kind it is cell membranes.
T1 sequence (P47746 whole entry): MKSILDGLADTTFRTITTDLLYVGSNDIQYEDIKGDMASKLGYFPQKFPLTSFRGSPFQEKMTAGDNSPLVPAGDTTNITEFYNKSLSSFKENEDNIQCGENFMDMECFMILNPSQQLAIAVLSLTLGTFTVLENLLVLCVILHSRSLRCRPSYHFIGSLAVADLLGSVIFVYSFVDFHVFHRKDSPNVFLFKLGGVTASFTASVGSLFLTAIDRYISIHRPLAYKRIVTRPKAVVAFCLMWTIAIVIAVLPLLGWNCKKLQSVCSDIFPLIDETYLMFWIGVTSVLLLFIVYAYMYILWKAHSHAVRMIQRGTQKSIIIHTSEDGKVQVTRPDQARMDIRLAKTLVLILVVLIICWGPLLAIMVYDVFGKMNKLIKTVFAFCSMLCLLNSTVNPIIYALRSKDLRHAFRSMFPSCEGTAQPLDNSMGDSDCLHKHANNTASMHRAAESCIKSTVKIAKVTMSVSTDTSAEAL
Data set [10] in a line: Drug uptake in C57BL/6J mouse brain at 10 mg/kg, po measured after 1 hr by LC-MS/MS analysis. In kind it is ADME, organism-based. As to conditions: read-out: Drug uptake.
Data set [11] deals with AMP-activated protein kinase (AMPK) alpha-1/beta-1/gamma-1 (Homo sapiens) (UniProt P54619+Q9Y478+Q13131). Briefly: Activation of recombinant AMPK alpha1/beta1/gamma1 (unknown origin) at 10 uM relative to control. It is filed as protein-complex assay. As to conditions: filed as activator.
AMP-activated protein kinase (AMPK) alpha-1/beta-1/gamma-1 (Homo sapiens), sequence (P54619 whole entry): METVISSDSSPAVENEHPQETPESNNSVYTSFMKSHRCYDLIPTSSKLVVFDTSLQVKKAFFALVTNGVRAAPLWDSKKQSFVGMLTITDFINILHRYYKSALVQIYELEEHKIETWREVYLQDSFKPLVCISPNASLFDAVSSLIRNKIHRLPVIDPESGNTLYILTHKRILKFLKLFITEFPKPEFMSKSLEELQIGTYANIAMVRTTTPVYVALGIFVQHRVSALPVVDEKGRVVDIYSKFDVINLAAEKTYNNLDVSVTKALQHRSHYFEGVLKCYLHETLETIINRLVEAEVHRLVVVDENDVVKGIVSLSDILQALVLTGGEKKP
AMP-activated protein kinase (AMPK) alpha-1/beta-1/gamma-1 (Homo sapiens), sequence (Q13131 whole entry partner): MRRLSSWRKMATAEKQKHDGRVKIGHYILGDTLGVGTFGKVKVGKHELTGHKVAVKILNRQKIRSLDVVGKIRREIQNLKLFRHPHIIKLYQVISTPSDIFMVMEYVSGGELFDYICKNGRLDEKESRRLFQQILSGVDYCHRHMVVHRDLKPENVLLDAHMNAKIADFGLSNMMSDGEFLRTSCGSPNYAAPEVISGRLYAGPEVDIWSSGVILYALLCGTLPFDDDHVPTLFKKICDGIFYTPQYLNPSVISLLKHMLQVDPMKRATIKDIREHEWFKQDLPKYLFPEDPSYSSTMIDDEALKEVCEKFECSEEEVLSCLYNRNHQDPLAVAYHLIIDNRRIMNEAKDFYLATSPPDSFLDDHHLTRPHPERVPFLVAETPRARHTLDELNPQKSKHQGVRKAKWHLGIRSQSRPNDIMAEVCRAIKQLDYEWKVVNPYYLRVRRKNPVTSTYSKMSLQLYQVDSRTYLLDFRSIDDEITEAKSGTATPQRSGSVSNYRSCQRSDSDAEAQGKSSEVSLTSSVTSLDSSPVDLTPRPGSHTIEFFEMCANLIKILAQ
AMP-activated protein kinase (AMPK) alpha-1/beta-1/gamma-1 (Homo sapiens), sequence (Q9Y478 2-270 partner limits assumed): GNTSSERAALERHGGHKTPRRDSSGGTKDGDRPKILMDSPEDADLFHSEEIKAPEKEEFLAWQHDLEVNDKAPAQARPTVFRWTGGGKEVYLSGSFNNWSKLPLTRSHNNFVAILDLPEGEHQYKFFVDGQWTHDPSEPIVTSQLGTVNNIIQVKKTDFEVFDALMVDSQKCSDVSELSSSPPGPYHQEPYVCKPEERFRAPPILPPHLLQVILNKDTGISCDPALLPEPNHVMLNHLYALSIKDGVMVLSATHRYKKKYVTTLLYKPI
Data set [12] can be described thus: Toxicity in C57BL/6J mouse assessed as induction of anxiety by measuring increase in time spent in closed arms at 10 mg/kg, po measured after 1 hr by elevated plus maze test. As to conditions: in vivo. In kind it is organism-based.
The subject of data set [13] is Mus musculus. The data set can be described thus: Modulation of metabolic parameters in diet-induced obesity C57BL/6J mouse model assessed as reduction in body weight at 10 mg/kg, po for 1 week. To be noted: time 1.0 weeks. It is filed as functional, organism-based.
Data set [14] can be described thus: Toxicity in C57BL/6J mouse assessed as induction of anxiety by measuring reduction in time spent in open arms at 10 mg/kg, po measured after 28 days by elevated plus maze test. To be noted: in vivo, 672 h, time 28 day. It is filed as organism-based.
Data set [15] deals with Mus musculus. Briefly: In vivo antagonist activity at CB1 receptor in C57BL/6J mouse assessed as inhibition of ACEA-induced reduction of upper GI motility at 3 to 10 mg/kg, po administered with CB1 agonist, ACEA and 30 mins later treated with compound and measured after 30 mins. In kind it is functional, organism-based. To be noted: dose 3-10 mg/kg.
Data set [16] relates to Mus musculus. Briefly: In vivo activation of AMPK in C57BL/6J mouse assessed as increase in AMPK phosphorylation at Thr172 residue in liver at 10 mg/kg, po measured after 2 to 4 hrs by western blot analysis. It is filed as functional, organism-based. To be noted: time 2-4 hrs. In general terms: Immunoblotting shows a protein as a band on a membrane.
The nature of data set [17]: Half life in mouse. It is filed as ADME, organism-based. To be noted: in vivo.
A short description of data set [18]: Drug uptake in C57BL/6J mouse plasma at 10 mg/kg, po measured after 1 hr by LC-MS/MS analysis. In kind it is ADME, organism-based.
A short description of data set [19]: Toxicity in C57BL/6J mouse assessed as induction of anxiety by measuring increase in time spent in closed arms at 10 mg/kg, po measured after 28 days by elevated plus maze test. It is filed as organism-based. To be noted: in vivo, 672 h, time 28 day.
Data set [20] in a line: Genotoxicity against Salmonella typhimurium TA98 in presence of S9 metabolic activation at 125 ug/ml by Ames test. In kind it is toxicity. To be noted: salmonella enterica subsp. enterica serovar typhimurium, dose 125 µg/ml. In general terms: The Ames test detects mutagens through reverse mutation in bacteria.
Data set [21] is described as follows: Genotoxicity against Salmonella typhimurium TA100 in presence of S9 metabolic activation at 125 ug/ml by Ames test. In kind it is toxicity. To be noted: salmonella enterica subsp. enterica serovar typhimurium, dose 125 µg/ml.
Data set [22] relates to Mus musculus. Briefly: Increase in fat oxidation in CB1-knock out mouse at 30 mg/kg, po measured for 24 hrs. It is filed as functional, organism-based.
Data set [23] is described as follows: Bound fraction in mouse plasma.
A short description of data set [24]: Genotoxicity against Salmonella typhimurium TA100 in absence of S9 metabolic activation at 125 ug/ml by Ames test. As to conditions: salmonella enterica subsp. enterica serovar typhimurium, dose 125 µg/ml. In kind it is toxicity.
Data set [25] concerns the target Voltage-gated inwardly rectifying potassium channel KCNH2 (Homo sapiens, UniProt Q12809). Briefly: Inhibition of hERG. It is filed as toxicity.
Data set [26] in a line: Drug uptake in C57BL/6J mouse liver at 10 mg/kg, po measured after 1 hr by LC-MS/MS analysis. It is filed as ADME, organism-based. As to conditions: read-out: Drug uptake.
For data set [27], the target named is T1, Cannabinoid receptor 1. The data set can be described thus: Antagonist activity at CB1 receptor in mouse brain membrane assessed as inhibition of […]-induced GTPgammaS binding by [35S]GTPgammaS binding analysis. In kind it is functional, cell membranes.
For data set [28], the system named is Mus musculus. The data set can be described thus: Modulation of metabolic parameters in diet-induced obesity C57BL/6J mouse model assessed as improvement in glucose tolerance at 10 mg/kg, po for 1 week by glucose tolerance test. It is filed as functional, organism-based. As to conditions: time 1.0 weeks.
Data set [29] has as its system Mus musculus. The data set can be described thus: Modulation of metabolic parameters in diet-induced obesity C57BL/6J mouse model assessed as reduction in food intake at 10 mg/kg, po for 1 week. In kind it is functional, organism-based. To be noted: time 1.0 weeks.
The nature of data set [30]: Cmax in C57BL/6J mouse serum at 10 mg/kg, po by LC-MS/MS analysis. Further details: dose 10 mg/kg, route po. In kind it is ADME, organism-based.
The target in a further data set is Cannabinoid receptor 2 (Homo sapiens, UniProt P34972). Briefly: Displacement of [3H][…] from CB2 receptor (unknown origin) expressed in CHO-K1 cells by radioligand displacement analysis. In kind it is cell-based. A general note: Displacement assays read how much labelled ligand stays bound in the presence of the test substance.
Cannabinoid receptor 2, sequence (P34972 whole entry): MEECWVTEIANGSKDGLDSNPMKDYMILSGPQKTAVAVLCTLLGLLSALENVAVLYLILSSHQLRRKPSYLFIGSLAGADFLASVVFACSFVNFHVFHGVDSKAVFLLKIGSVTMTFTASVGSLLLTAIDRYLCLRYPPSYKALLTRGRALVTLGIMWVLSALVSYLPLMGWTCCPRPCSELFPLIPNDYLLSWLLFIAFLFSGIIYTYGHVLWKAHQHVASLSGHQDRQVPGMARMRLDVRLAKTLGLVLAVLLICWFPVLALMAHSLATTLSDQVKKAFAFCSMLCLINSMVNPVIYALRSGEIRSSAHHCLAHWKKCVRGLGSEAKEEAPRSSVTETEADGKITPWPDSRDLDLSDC
Data set [31] in a line: Tmax in C57BL/6J mouse serum at 10 mg/kg, po by LC-MS/MS analysis. It is filed as ADME, organism-based.

Calls of active or inactive are those of the source. The calls are words filed in the database; no cut-off is given here.

Broadly, the half-life is how long it takes for the measured level to halve. The low end stands for fast loss, the high end for slow loss. For orientation: logD means lipophilicity at a set pH, counting ionised and neutral species. The Ki is the dissociation constant of the complex between target and ligand, obtained from inhibition or displacement. A high value points to weaker binding. Usually IC50 stands for the concentration that inhibits the measured activity by half. In general, Cmax refers to the highest concentration seen after dosing. One may read the Tmax as the time from dosing to the highest level.

Voltage-gated inwardly rectifying potassium channel KCNH2, sequence (Q12809 whole entry): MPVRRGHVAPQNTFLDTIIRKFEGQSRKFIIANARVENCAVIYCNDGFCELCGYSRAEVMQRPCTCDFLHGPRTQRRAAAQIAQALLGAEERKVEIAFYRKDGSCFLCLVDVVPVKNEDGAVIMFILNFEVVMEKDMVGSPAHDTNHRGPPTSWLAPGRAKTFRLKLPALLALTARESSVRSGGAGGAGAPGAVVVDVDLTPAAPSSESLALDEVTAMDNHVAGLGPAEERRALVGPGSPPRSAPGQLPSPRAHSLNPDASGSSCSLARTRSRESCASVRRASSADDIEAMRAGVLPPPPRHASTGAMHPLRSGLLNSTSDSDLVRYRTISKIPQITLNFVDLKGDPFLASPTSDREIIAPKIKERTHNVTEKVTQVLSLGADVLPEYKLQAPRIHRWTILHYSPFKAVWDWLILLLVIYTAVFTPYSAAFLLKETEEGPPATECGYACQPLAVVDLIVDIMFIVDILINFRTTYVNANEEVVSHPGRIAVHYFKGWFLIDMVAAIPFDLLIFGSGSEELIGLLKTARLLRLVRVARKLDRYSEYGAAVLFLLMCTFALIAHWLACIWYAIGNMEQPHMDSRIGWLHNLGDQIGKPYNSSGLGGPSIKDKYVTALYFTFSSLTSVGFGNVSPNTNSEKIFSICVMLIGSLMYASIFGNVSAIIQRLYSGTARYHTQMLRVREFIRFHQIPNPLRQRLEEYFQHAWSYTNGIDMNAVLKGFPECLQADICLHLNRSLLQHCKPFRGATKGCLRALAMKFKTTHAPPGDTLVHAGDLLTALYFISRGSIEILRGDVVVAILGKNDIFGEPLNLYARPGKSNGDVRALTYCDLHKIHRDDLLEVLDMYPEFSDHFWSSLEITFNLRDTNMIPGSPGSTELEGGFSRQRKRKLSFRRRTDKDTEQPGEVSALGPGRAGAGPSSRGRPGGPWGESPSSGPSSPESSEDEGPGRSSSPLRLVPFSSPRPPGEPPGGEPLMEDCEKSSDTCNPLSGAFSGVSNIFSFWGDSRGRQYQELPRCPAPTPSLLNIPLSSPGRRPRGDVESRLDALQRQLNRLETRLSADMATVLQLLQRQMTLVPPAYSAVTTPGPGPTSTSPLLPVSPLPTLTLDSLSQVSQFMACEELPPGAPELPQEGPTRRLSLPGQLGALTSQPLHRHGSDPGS

As for `CC(=O)N/C(N)=N/C(=N\S(=O)(=O)c1ccc(C(F)(F)F)cc1)N1C[C@H](c2ccccc2)C(c2ccc(Cl)cc2)=N1`, the concentration in [1] was found to be 0.5 µM; in data set [2] it was 14 µM.

On to `CC(=O)N/C(N)=N/C(=N/S(=O)(=O)c1ccc(Cl)cc1)N1C[C@H](c2ccccc2)C(c2ccc(Cl)cc2)=N1`, for which the half-life was ~180 min in data set [3], 8.1 min in data set [4] and 7.3 min in data set [17]. In addition, the outcome in the data set with Mus musculus [5], with Mus musculus [13], in the data set with Mus musculus [16], in the data set with Mus musculus [22], with Mus musculus [28] and with Mus musculus [29] was Active. In addition, the fraction bound in [6] is 0.999; in data set [23], 1. The same molecule yielded a logD in [7] of 4.3. The Activity result in data set [8] was “Non-Toxic”; in data set [11] it was 134%; in data set [12], “Non-Toxic”; in data set [14], “Non-Toxic”; with Mus musculus [15], “Dose-Dependent Effect”; in data set [19] it was “Non-Toxic”. The Activity result in data set [20], in [21] and in data set [24] was “Non-Toxic” throughout. Besides, the results for the Ki at Cannabinoid receptor 1 [9] and on Cannabinoid receptor 2 were 0.81 nM and 476 nM, respectively. Further, the figures for the concentration at 1 h in [10], in data set [18] and in data set [26] were 140 ng/g, 3100 ng/mL and 46700 ng/g, respectively. Also, the 50% inhibitory concentration (IC50) was > 100000 nM in [25] and 3.9 nM at Cannabinoid receptor 1 [27]. Also, the concentration in [30] peaked (Cmax) at 4 µM. Moreover, in data set [31], the Tmax amounted to 60 min.

(Values after ChEMBL document CHEMBL5365437, “Cannabinoformins: Designing Biguanide-Embedded, Orally Available, Peripherally Selective Cannabinoid-1 Receptor Antagonists for Metabolic Syndrome Disorders” (J Med Chem, 2023).)
